Source: patent publication US20250171414A1, “COMPOUND SERVING AS MASP-2 INHIBITOR, PHARMACEUTICAL COMPOSITION, PREPARATION METHOD THEREFOR, AND USE THEREOF” (WUHAN CREATERNA SCIENCE AND TECHNOLOGY CO., LTD., priority 2022, published 2025)
Where two headings read alike, the source gives them in different places.

Key:
human α-thrombin = human α-thrombin (Homo sapiens (Human), UniProt P00734); assay: Inhibition of thrombin, fluorescent peptide substrate Boc-VPR-AMC; assay type: biochemical
Method: For thrombin assay, a fluorescent peptide substrate (Boc-VPR-AMC (R&D Systems)) was used and reacted in a buffer containing 20 mM Hepes (pH 7.4), 140 mM NaCl, and 0.1% Tween 20 at room temperature. Assay parameters were adjusted to make the assay linearly related to time, enzyme, and substrate concentration.
The assay method for thrombin is as follows. Test compounds were each serially diluted with a buffer, and then 10 μL of compound solution was transferred to an assay plate. A buffer was added to the assay plate at 10 μL/well, and then a thrombin (human α-thrombin (BioPharm Lab.)) solution was added at 15 μL/well. A Boc-VPR-AMC substrate solution was added at 15 μL/well, and the resulting mixture was incubated for 60 min at 25° C. A terminating solution (0.1 M acetic acid) was added at 15 μL/well, and detection was performed within 30 min by using a SpectraMax i3x microplate reader.

[1] = In vivo pharmacokinetic study in SD rats; settings: clear
Method: After adaptive feeding, the SPF SD rats were each subjected to a single administration of 1 mg/kg or 3 mg/kg of the compound of the present disclosure intragastrically or by tail vein bolus injection. Plasma was collected at specific time points after administration, and the concentration of the compound in plasma was detected by LC-MS/MS (AB Sciex Qtrap 4500).

[2] = tested on: lectin pathway (MBL) in human serum; assay: Inhibition of activity of lectin pathway (MBL) in human serum (WIESLAB Complement System MBL Pathway kit); assay type: biochemical; settings: 1% human serum
Outline: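 Serially diluted compounds preincubated 15 min at room temperature with 1% human serum, then MBL-pathway activation on coated plate at 37° C for 60 min. Deposited complement detected by enzyme-conjugated antibody and substrate, each 30 min at 25° C. Absorbance read at 405 nm.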

[3] = Sprague-Dawley (SD), rat, plasma, 1 mg/kg, IV, not fasting
[4] = Sprague-Dawley (SD), rat, plasma, 1 mg/kg, PO, fasting

AUClast ([1]; 1 mg/kg, IV, not fasting)	Cmax ([1]; 1 mg/kg, IV, not fasting)	T1/2 ([1]; 1 mg/kg, IV, not fasting)	Molecule	IC50 (human α-thrombin)	IC50 [2]	also measured
54837 ± 1386 ng·h/mL	7297 ± 154 ng/mL	31.1 ± 1.27 h	C[C@H](NC(=O)[C@H]1C[C@H](Cc2ccc(F)cc2)CN1)C(=O)NC1CCc2nc(N)ccc21 (stereo partly drawn) [Compound L001, (2R,4S)—N-((2S)-1-((2-amino-6,7-dihydro-5H-cyclopenta[b]pyridin-5-yl)amino)-1-oxopropan-2-yl)-4-(4-fluorobenzyl) pyrrolidine-2-carboxamide]	> 50000 nM	2.67 nM	AUClast ([1]; 1 mg/kg, PO, fasting): 9822 ± 108 ng·h/mL; Cmax ([1]; 1 mg/kg, PO, fasting): 1483 ± 41.0 ng/mL; T1/2 ([1]; 1 mg/kg, PO, fasting): 10.1 h
299766 ± 11465 ng·h/mL	23267 ± 1538 ng/mL	42.4 ± 3.40 h	C[C@H](NC(=O)[C@H]1C[C@H](Cc2ccc(F)cc2)CN1)C(=O)N[C@@H]1CCc2nc(N)ccc21 [Compound L001-IS-01, (2R,4S)—N—((S)-1-(((R)-2-amino-6,7-dihydro-5H-cyclopenta[b]pyridin-5-yl)amino)-1-oxopropan-2-yl)-4-(4-fluorobenzyl) pyrrolidine-2-carboxamide]	27400 nM	0.52 nM	AUClast ([1]; 3 mg/kg, PO, fasting): 188265 ± 20044 ng·h/mL; Cmax ([1]; 3 mg/kg, PO, fasting): 6070 ± 914 ng/mL; T1/2 ([1]; 3 mg/kg, PO, fasting): 43.9 ± 8.44 h
			C[C@H](NC(=O)[C@H]1C[C@H](Cc2ccc(-c3ccccc3)cc2)CN1)C(=O)NC1CCc2nc(N)ccc21 (stereo partly drawn) [Compound L002, (2R,4S)-4-([1,1′-biphenyl]-4-ylmethyl)-N-((2S)-1-((2-amino-6,7-dihydro-5H-cyclopenta[b]pyridin-5-yl)amino)-1-oxopropan-2-yl) pyrrolidine-2-carboxamide]	> 50000 nM	2.48 nM	
			Nc1ccc2c(n1)CCC2NC(=O)[C@@H]1CCN1C(=O)[C@H]1C[C@H](Cc2ccc(-c3ccccc3)cc2)CN1 (stereo partly drawn) [Compound L027, (2S)-1-(2R,4S)-4-([1,1′-biphenyl]-4-(4-methyl)pyrrolidine-2-carbonyl)-N-(2-amino-6,7-dihydro-5H-cyclopenta[b]pyridin-5-yl) azetidine-2-carboxamide]	11900 nM	1.43 nM	
			Nc1ccc2c(n1)CCC2NC(=O)[C@@H]1CCCN1C(=O)[C@H]1C[C@H](Cc2ccc(-c3ccccc3)cc2)CN1 (stereo partly drawn) [Compound L028, (2S)-1-(2R,4S)-4-([1,1′-biphenyl]-4-(4-ylmethyl)pyrrolidine-2-carbonyl)-N-(2-amino-6,7-dihydro-5H-cyclopenta[b]pyridin-5-yl) pyrrolidine-2-carboxamide]	16600 nM	4.09 nM	
			Nc1ccc2c(n1)CCC2NC(=O)[C@@H]1CCN1C(=O)[C@H]1C[C@H](Cc2ccc(F)cc2)CN1 (stereo partly drawn) [Compound L030, (2S)—N-(2-amino-6,7-dihydro-5H-cyclopenta[b]pyridin-5-yl)-1-((2R,4S)-4-(4-fluorobenzyl)pyrrolidine-2-carbonyl) azetidine-2-carboxamide]	10300 nM	1.85 nM	
			C[C@H](NC(=O)[C@H]1C=C(c2cccc(F)c2F)CCN1)C(=O)N[C@@H]1CCc2nc(N)ccc21 [Compound L084, (R)—N—((S)-1-(((R)-2-amino-6,7-dihydro-5H-cyclopenta[b]pyridin-5-yl)amino)-1-oxopropan-2-yl)-4-(2,3-difluorophenyl)-1,2,5,6-tetrahydropyridine-2-carboxamide]		13.3 nM	AUC(0-t) [1, 3]: 26000 ± 1480 ng·h/mL; half-life [1, 3]: 3.68 ± 0.22 h; Cmax ([1]; Sprague-Dawley (SD), rat, plasma, 1 mg/kg, IV, not fasting, read-out: Cmax): 18200 ± 929 ng/mL; AUC(0-t) [1, 4]: 6880 ± 1430 ng·h/mL; half-life [1, 4]: 3.09 ± 0.05 h; Cmax ([1]; Sprague-Dawley (SD), rat, plasma, 1 mg/kg, PO, fasting, read-out: Cmax): 2140 ± 664 ng/mL

Molecule	AUClast ([1]; 1 mg/kg, IV, not fasting)	Cmax ([1]; 1 mg/kg, IV, not fasting)	T1/2 ([1]; 1 mg/kg, IV, not fasting)	IC50 (human α-thrombin)	IC50 [2]	also measured
(2R)—N-((2S)-1-((2-amino-6,7-dihydro-5H-cyclopenta[b]pyridin-5-yl)amino)-1-oxopropan-2-yl)-4-phenyl-1,2,3,6-tetrahydropyridine-2-carboxamide [Compound L023-IS-02]	21567 ± 2996 ng·h/mL	17400 ± 1026 ng/mL	3.93 ± 0.18 h		3.36 nM	AUClast ([1]; 3 mg/kg, PO, fasting): 17996 ± 2579 ng·h/mL; Cmax ([1]; 3 mg/kg, PO, fasting): 4340 ± 162 ng/mL; T1/2 ([1]; 3 mg/kg, PO, fasting): 4.20 ± 0.54 h
